Experiment [1] relates to NCI-H1650 (Lung Adenocarcinoma). Kind of experiment: Bliss excess, mean over the matrix (fraction); higher = more synergy. The essentials:
(§1)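 Cell lines grown in DMEM/F12 or RPMI with 10% FBS were plated in 1536-well plates and held 24 hours at 37°C, 5% CO2 before 72 hours of exposure to two-drug dose matrices, with DMSO typically at 0.2%. CellTiter-Glo 2.0 luminescence gave viability, which was converted to inhibition. Vehicle wells were set to 0 and blank wells to 1. Combination Emax is the second-highest inhibition in the matrix, and Bliss excess is the observed combination effect minus the expected EA + EB − EA·EB, where EA and EB are the single-agent effects.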

In experiment [2] the test system is BT-483 (Breast Carcinoma). The description is as above. The essentials:
as §1

For experiment [3], the system named is BICR22 (Oral Cavity Carcinoma). Described as above. An outline of the steps: as §1
Experiment [4] deals with COLO-320-HSR (Colorectal Carcinoma). The experiment is described as above. The essentials:
as §1

Experiment [5] has as its system MDST8 (Colorectal Carcinoma). Described as above. The essentials:
as §1

Experiment [6] deals with NCI-H2141 (Small Cell Lung Carcinoma). Described as above. The essentials: as §1
The subject of experiment [7] is CAPAN-2 (Pancreatic Carcinoma). The description is as above. An outline of the steps: as §1
For experiment [8], the system named is BT-483 (Breast Carcinoma). Kind of experiment: combination Emax (second highest fraction inhibited in the dose matrix, 72 h); higher = more inhibition; extreme values may be limits of the assay. An outline of the steps: as §1
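Wherever Bliss excess, mean over the matrix is given: after 72 h of two-drug dosing.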

As for `CN(C)CCCOc1ccc(-c2ccc3ncc4c(c3c2)n(C2CCOCC2)c(=O)n4C)cn1` [AZD0156] + O=C(c1cc(Cc2n[nH]c(=O)c3ccccc23)ccc1F)N1CCN(C(=O)C2CC2)CC1 [Olaparib] (first compound max 3 µM, partner max 3 µM), the Bliss excess in experiment [1] was -0.0462; in experiment [2] it was -0.0118; in experiment [3], -0.0003; in experiment [4], 0.104; in experiment [5] it was 0.0269; in experiment [6], 0.0117. In addition, the Bliss excess in experiment [7] is -0.0535. In experiment [8], the “combination Emax” value was 0.313.
For the compound `C=CCn1c(=O)c2cnc(Nc3ccc(N4CCN(C)CC4)cc3)nc2n1-c1cccc(C(C)(C)O)n1` [AZD1775] + C1CN(CCC1(C(=O)N[C@@H](CCO)C2=CC=C(C=C2)Cl)N)C3=NC=NC4=C3C=CN4 [Capivasertib] (first compound max 3 µM, partner max 3 µM), the Bliss excess was -0.0473 in experiment [1]; -0.0416 in experiment [2]; 0.0369 in experiment [3]; -0.0314 in experiment [4]; -0.0769 in experiment [5]; -0.0268 in experiment [6]. In addition, the Bliss excess in experiment [7] was -0.0949. The “combination Emax” value in experiment [8] is 0.391.
For the compound `CCc1c2c(nc3ccc(O)cc13)-c1cc3c(c(=O)n1C2)COC(=O)[C@]3(O)CC` [SN-38] + CN(C)CCCOc1ccc(-c2ccc3ncc4c(c3c2)n(C2CCOCC2)c(=O)n4C)cn1 [AZD0156] (first compound max 0.3 µM, 7x7, partner max 1 µM), the Bliss excess in experiment [1] was -0.0079; in experiment [3], 0.0243; in experiment [4] it was 0.0243; in experiment [5], 0.0171; in experiment [6] it was 0.0219; in experiment [7] it was -0.0468.
For `CCc1c2c(nc3ccc(O)cc13)-c1cc3c(c(=O)n1C2)COC(=O)[C@]3(O)CC` [SN-38] + O=C(c1cc(Cc2n[nH]c(=O)c3ccccc23)ccc1F)N1CCN(C(=O)C2CC2)CC1 [Olaparib] (first compound max 0.3 µM, 7x7, partner max 10 µM), the Bliss excess is 0.0138 in experiment [1]; 0.0626 in experiment [3]; -0.0523 in experiment [4]; -0.0419 in experiment [5]; 0.0521 in experiment [6]; -0.0382 in experiment [7].
As for `C[C@@H](c1ccc2nccn2c1)n1nnc2ncc(-c3cnn(C)c3)nc21` [Savolitinib] + CC1(C)CCC(CN2CCN(c3ccc(C(=O)NS(=O)(=O)c4ccc(NCC5CCOCC5)c([N+](=O)[O-])c4)c(Oc4cnc5[nH]ccc5c4)c3)CC2)=C(c2ccc(Cl)cc2)C1 [Venetoclax] (first compound max 1 µM, 7x7, partner max 1 µM), the Bliss excess is -0.0716 in experiment [1]; -0.0353 in experiment [3]; -0.0223 in experiment [4]; -0.0546 in experiment [5]; -0.108 in experiment [6]; -0.0682 in experiment [7].
As to `C[C@@H](c1ccc2nccn2c1)n1nnc2ncc(-c3cnn(C)c3)nc21` [Savolitinib] + Cc1c2c(nn1C)CSCc1cc(n(C)n1)CSc1cc(c3ccccc3c1)OCCCc1c(C(=O)O)n(C)c3c-2c(Cl)ccc13 [AZD5991] (first compound max 1 µM, 7x7, partner max 1 µM), the Bliss excess in experiment [1] was -0.0634; in experiment [3] it was -0.0321; in experiment [4], -0.0464; in experiment [5], -0.0413; in experiment [6], -0.0107; in experiment [7], -0.0206.
On to `Cn1cnc2c(F)c(Nc3ccc(Br)cc3Cl)c(C(=O)NOCCO)cc21` [Selumetinib] + C=CCn1c(=O)c2cnc(Nc3ccc(N4CCN(C)CC4)cc3)nc2n1-c1cccc(C(C)(C)O)n1 [AZD1775] (first compound max 10 µM, partner max 1 µM), for which the Bliss excess in experiment [1] was -0.0792; in experiment [3] it was -0.0362; in experiment [4], -0.0657; in experiment [5] it was -0.0165; in experiment [6], -0.0682; in experiment [7], 0.033.
On to `Cn1cnc2c(F)c(Nc3ccc(Br)cc3Cl)c(C(=O)NOCCO)cc21` [Selumetinib] + CC(C)n1c(=O)n(C)c2cnc3cc(F)c(-c4ccc(OCCCN5CCCCC5)nc4)cc3c21 [AZD1390] (first compound max 10 µM, 7x7, partner max 0.3 µM), for which the Bliss excess in experiment [1] was -0.0572; in experiment [3] it was -0.027; in experiment [4] it was -0.0182; in experiment [5], -0.0468; in experiment [6], -0.0386; in experiment [7] it was -0.0005.
For the compound `Cn1cnc2c(F)c(Nc3ccc(Br)cc3Cl)c(C(=O)NOCCO)cc21` [Selumetinib] + CCN(CCO)CCCOc1ccc2c(Nc3cc(CC(=O)Nc4cccc(F)c4)[nH]n3)ncnc2c1 [AZD2811] (first compound max 10 µM, 7x7, partner max 1 µM), the Bliss excess was -0.0333 in experiment [1]; -0.0731 in experiment [3]; -0.0398 in experiment [4]; -0.0214 in experiment [5]; -0.0196 in experiment [6]; 0.0517 in experiment [7].
Turning to `Cn1cnc2c(F)c(Nc3ccc(Br)cc3Cl)c(C(=O)NOCCO)cc21` [Selumetinib] + C[C@@H]1COCCN1C2=NC(=NC(=C2)C3(CC3)[S@](=N)(=O)C)C4=C5C=CNC5=NC=C4 [AZD6738] (first compound max 10 µM, 7x7, partner max 10 µM), the Bliss excess in experiment [1] was -0.0315; in experiment [3], -0.0834; in experiment [4], -0.0678; in experiment [5], 0.042; in experiment [6], -0.0666; in experiment [7], 0.0596.
As for `CC(=O)Nc1cccc(-n2c(=O)n(C3CC3)c(=O)c3c(Nc4ccc(I)cc4F)n(C)c(=O)c(C)c32)c1` [Trametinib] + Cc1nc(-c2cn3c(n2)-c2ccc(-c4cnn(C(C)(C)C(N)=O)c4)cc2OCC3)n(C(C)C)n1 [Taselisib] (first compound max 1 µM, 7x7, partner max 10 µM), the Bliss excess in experiment [1] was 0.0443; in experiment [3], 0.16; in experiment [4] it was 0.0338; in experiment [5], -0.0104; in experiment [6], -0.0299; in experiment [7], 0.117.
Regarding `CC1(C)CCC(CN2CCN(c3ccc(C(=O)NS(=O)(=O)c4ccc(NCC5CCOCC5)c([N+](=O)[O-])c4)c(Oc4cnc5[nH]ccc5c4)c3)CC2)=C(c2ccc(Cl)cc2)C1` [Venetoclax] + C1CN(CCC1(C(=O)N[C@@H](CCO)C2=CC=C(C=C2)Cl)N)C3=NC=NC4=C3C=CN4 [Capivasertib] (first compound max 1 µM, 7x7, partner max 3 µM), the Bliss excess in experiment [1] is -0.0329; in experiment [3], -0.0249; in experiment [4], -0.0006; in experiment [5], -0.0389; in experiment [6], -0.0534; in experiment [7], -0.0658.
Consider `CC1(C)CCC(CN2CCN(c3ccc(C(=O)NS(=O)(=O)c4ccc(NCC5CCOCC5)c([N+](=O)[O-])c4)c(Oc4cnc5[nH]ccc5c4)c3)CC2)=C(c2ccc(Cl)cc2)C1` [Venetoclax] + C=CCn1c(=O)c2cnc(Nc3ccc(N4CCN(C)CC4)cc3)nc2n1-c1cccc(C(C)(C)O)n1 [AZD1775] (first compound max 1 µM, partner max 1 µM), for which the Bliss excess in experiment [1] was -0.0298; in experiment [3], 0.0453; in experiment [4] it was 0.0635; in experiment [5], -0.0489; in experiment [6], 0.0167; in experiment [7], -0.0013.
Consider `CC1(C)CCC(CN2CCN(c3ccc(C(=O)NS(=O)(=O)c4ccc(NCC5CCOCC5)c([N+](=O)[O-])c4)c(Oc4cnc5[nH]ccc5c4)c3)CC2)=C(c2ccc(Cl)cc2)C1` [Venetoclax] + CCN(CCO)CCCOc1ccc2c(Nc3cc(CC(=O)Nc4cccc(F)c4)[nH]n3)ncnc2c1 [AZD2811] (first compound max 1 µM, 7x7, partner max 1 µM), for which the Bliss excess in experiment [1] was 0.0046; in experiment [3], -0.0138; in experiment [4], 0.0052; in experiment [5] it was -0.0011; in experiment [6], 0.0609; in experiment [7], -0.0114.
Take `CC1(C)CCC(CN2CCN(c3ccc(C(=O)NS(=O)(=O)c4ccc(NCC5CCOCC5)c([N+](=O)[O-])c4)c(Oc4cnc5[nH]ccc5c4)c3)CC2)=C(c2ccc(Cl)cc2)C1` [Venetoclax] + CN(C)CCCOc1ccc(-c2ccc3ncc4c(c3c2)n(C2CCOCC2)c(=O)n4C)cn1 [AZD0156] (first compound max 1 µM, 7x7, partner max 1 µM): the Bliss excess in experiment [1] was -0.0361; in experiment [3] it was -0.0381; in experiment [4] it was 0.0114; in experiment [5] it was -0.038; in experiment [6], -0.0183; in experiment [7], -0.0191.
Turning to `CC1(C)CCC(CN2CCN(c3ccc(C(=O)NS(=O)(=O)c4ccc(NCC5CCOCC5)c([N+](=O)[O-])c4)c(Oc4cnc5[nH]ccc5c4)c3)CC2)=C(c2ccc(Cl)cc2)C1` [Venetoclax] + COc1cc(Nc2ncc3c(n2)-c2ccc(Cl)cc2C(c2c(F)cccc2OC)=NC3)ccc1C(=O)O [Alisertib] (first compound max 1 µM, 7x7, partner max 10 µM), the Bliss excess in experiment [1] was -0.0515; in experiment [3] it was 0.0052; in experiment [4] it was 0.0248; in experiment [5], -0.0242; in experiment [6], 0.171; in experiment [7] it was -0.0463.
As to `CC1(C)CCC(CN2CCN(c3ccc(C(=O)NS(=O)(=O)c4ccc(NCC5CCOCC5)c([N+](=O)[O-])c4)c(Oc4cnc5[nH]ccc5c4)c3)CC2)=C(c2ccc(Cl)cc2)C1` [Venetoclax] + C[C@@H]1COCCN1C2=NC(=NC(=C2)C3(CC3)[S@](=N)(=O)C)C4=C5C=CNC5=NC=C4 [AZD6738] (first compound max 1 µM, 7x7, partner max 10 µM), the Bliss excess was -0.0605 in experiment [1]; -0.0511 in experiment [3]; -0.0076 in experiment [4]; -0.0025 in experiment [5]; 0.0202 in experiment [6]; -0.0439 in experiment [7].
Regarding `CC1(C)CCC(CN2CCN(c3ccc(C(=O)NS(=O)(=O)c4ccc(NCC5CCOCC5)c([N+](=O)[O-])c4)c(Oc4cnc5[nH]ccc5c4)c3)CC2)=C(c2ccc(Cl)cc2)C1` [Venetoclax] + C[C@@H](Nc1cc(F)cc(F)c1)c1cc(C(=O)N(C)C)cc2c(=O)cc(N3CCOCC3)oc12 [AZD8186] (first compound max 1 µM, 7x7, partner max 3 µM), the Bliss excess in experiment [1] is -0.019; in experiment [3], -0.0378; in experiment [4], -0.0052; in experiment [5], -0.0304; in experiment [6] it was 0.0074; in experiment [7], -0.0167.
Turning to `CC1(C)CCC(CN2CCN(c3ccc(C(=O)NS(=O)(=O)c4ccc(NCC5CCOCC5)c([N+](=O)[O-])c4)c(Oc4cnc5[nH]ccc5c4)c3)CC2)=C(c2ccc(Cl)cc2)C1` [Venetoclax] + Cc1cc2ncnn2cc1Nc1ncc2c(n1)n(C1CCOCC1)c(=O)n2C [AZD7648] (first compound max 1 µM, 7x7, partner max 10 µM), the Bliss excess in experiment [1] was -0.0446; in experiment [3], -0.0376; in experiment [4] it was -0.0098; in experiment [5] it was -0.0151; in experiment [6], -0.0491; in experiment [7], -0.0083.
For the compound `CC1(C)CCC(CN2CCN(c3ccc(C(=O)NS(=O)(=O)c4ccc(NCC5CCOCC5)c([N+](=O)[O-])c4)c(Oc4cnc5[nH]ccc5c4)c3)CC2)=C(c2ccc(Cl)cc2)C1` [Venetoclax] + Cn1cnc2c(F)c(Nc3ccc(Br)cc3Cl)c(C(=O)NOCCO)cc21 [Selumetinib] (first compound max 1 µM, 7x7, partner max 3 µM), the Bliss excess in experiment [1] is -0.0457; in experiment [3] it was -0.0691; in experiment [4], -0.0062; in experiment [5], -0.0579; in experiment [6] it was -0.0303; in experiment [7], -0.0256.

The record behind these values is the supplement of paper PMC11061612.
